Test system: BT-474 breast cancer cells
Assay: Toxicity of the Compound (IVa) polymer in BT-474 cultures
Assay type: cell-based
Settings: 24-hours
Procedure: The small molecule, N-allyl noroxymorphone hydrochloride, was added to Compound IVa (SiH3—[SiH2]n—SiH2—[C5H7O2]n with Ca10(PO4)6(OH)2) at a concentration of 0.4-mg N-allyl noroxymorphone/mg of Compound IVa. Then the MAGE-Polymerization Initiator Solution containing the vinyl monomer vinyl methacrylate was added in a ratio of 2:1. The material—with N-allyl noroxymorphone hydrochloride—was then polymerized and added to cultures of BT-474 breast cancer cells. Cultures were also treated with N-allyl noroxymorphone hydrochloride alone. Control cultures received no treatment.

C=CCN1CC[C@]23c4c5ccc(O)c4O[C@H]2C(=O)CC[C@@]3(O)[C@H]1C5.Cl [N-allyl noroxymorphone hydrochloride]
Decrease in cell number relative to Control Cultures: 59.7%
